Entries after “also recorded” stand apart in the source; their conditions may differ.
What was measured:
primary human NK cells = experiment: 2D live imaging of primary NK cell migration on EL08.1D2 stromal cells; type: cell-based; conditions: 10 uM Cpd60 vs vehicle; three donors
Description: 2D migration studies were done as previously reported. In brief, EL08.1D2 stromal cells were grown to a confluent monolayer on Lab-Tek chamber slides pre-coated with 0.1% gelatin (Stemcell Technologies). […] Cells were imaged in 96-well ImageLock plates (Essen Bioscience) on the IncuCyte ZOOM Live-Cell Analysis System (Essen Bioscience) at 37° C. every 2 min in the phase-contrast mode (10× objective). Tracking of live cells was done using the manual tracking feature in Volocity or FIJI. Tracks were plotted using the Chemotaxis plugin of FUI. Cells that were in the field of imaging for fewer than two frames were discarded, as were cells which were non-adherent or floating. EL08.1D2 cells were used as de facto fiducial markers to ensure that neither they or the microscope stage was drifting and causing apparent NK cell movement.
Length and displacement measurements were derived directly from tracked cells and graphed using GraphPad software. Velocity data was obtained by dividing the total track length by the time of imaging.
2D migration studies were done as previously reported (31, 32). In brief, EL08.1D2 stromal cells were grown to a confluent monolayer on flat-bottomed 96 well ImageLock plates (Essen Bioscience) pre-coated with 0.1% gelatin (Stemcell Technologies). […] Freshly isolated human NK cells were imaged in 96-well on the IncuCyte ZOOM Live-Cell Analysis System (Essen Bioscience) at 37° C. every 2 min in the phase-contrast mode (10× objective). Tracking of live cells was done using the manual tracking feature in Fiji (33). Tracks were plotted using the Chemotaxis plugin of FIJI. Cells that were in the field of imaging for fewer than two frames were discarded, as were cells which were non-adherent or floating. EL08.1D2 cells were used as de facto fiducial markers to ensure that neither they or the microscope stage was drifting and causing apparent NK cell movement. Length and displacement measurements were derived directly from tracked cells and graphed using GraphPad software. Velocity data was obtained by dividing the total track length by the time of imaging.

FAP = biological target: T1, FAP (Homo sapiens, UniProt Q12884); experiment: Fluorescent peptide dipeptidyl peptidase activity assay; type: biochemical; conditions: fluorescent peptide substrate
T1 construct: purchased R&D systems 3715-SE-010
Description: (§1) 100 mM stock of dipeptidyl peptidase substrate (Acetyl-Aka-Gly-Pro-AFC) (Anaspec, cat #AS-24126) was made by resuspending lyophilized substrate in DMSO. On the day of the assay, substrate stock was then diluted 1:1000 in activity assay buffer (50 mM Tris, 1 M NaCl, 1 mg/mL BSA, pH 7.5). A standard curve was generated using rFAP (R&D systems, cat #3715-SE-010) or rDPP4 (R&D systems, cat #9168-SE) and 50 uL of recombinant protein plus 50 uL of substrate was added to each well of a 96 Well Flat Clear Bottom White Polystyrene TC-Treated Microplates (Corning, cat #3903). The plate was incubated for 30 minutes at 37° C. then read on a PerkinElmer EnVision Multimode Plate Reader with 390-400 nm excitation and […] emission wavelengths. To test tumor lysates, 50-100 mg of snap frozen tumors were homogenized in 100-300 uL activity assay buffer using a Kimble Biomasher II closed system tissue grinder (DWK Life Sciences, cat #749625-0020). Protein concentration was determined using Bio-rad protein concentration DC Protein Assay Kit II (Bio-rad, cat #5000112). All samples were diluted to equal protein concentrations using activity assay buffer then added at 50 uL plus 50 uL substrate per well. Final concentration of FAP per well was calculated using the standard curve. Data were compiled and assessed for significance using GraphPad Prism 9 for an unpaired, two-tailed t-test.

DPPIV = biological target: T2, DPPIV (Homo sapiens, UniProt P27487); experiment: as above; type: biochemical; conditions: fluorescent peptide substrate
T2 construct: purchased R&D systems 9168-SE
Description: as §1

NK92-GFP cells = experiment: NK92-GFP infiltration into cell clusters embedded in 3D matrix; type: cell-based, human; conditions: 10 uM Cpd60
Description: 3D clusters were generated, embedded and stained as previously described. In brief, clusters were generated by plating 1,000 cells per well into 96-well Nunclon Sphera low adhesion plates (Thermo Scientific, cat #174925) and incubated overnight at 37° C. The following day, 6 clusters were embedded into an ECM containing 2,000 NK cells and plated into one well of a Nunc Lab-Tek II 8-well chamber slide (ThermoScientific, cat #154534PK). The ECM mixture consisted of 20% growth factor reduced Matrigel (Corning, 10-12 mg/ml stock concentration, #354230) and 80% rat tail collagen type I at 3 mg/mL (gibco, A1048301). Cells were either imaged for the following 24 hours every 30 minutes using the Zeiss LSM800 scanning confocal microscope or allowed to incubate overnight at 37° C. After 24 hours, cells in matrix were fixed with 5.4% formalin for 1 hour, permeabilized with 0.5% Triton-X and blocked using goat serum. For invasion assays, NK-92-GFP cells were stained with anti-GFP (ThermoFisher, cat #A-11122). For the cell lysis assays clusters were stained using anti-cleaved caspase 3 (Cell Signaling, cat #9661). Hoechst 33342, phalloidin, and secondary antibodies labeled with Alexa Fluor 488 nm, 546 nm, 647 nm, or 680 nm (Invitrogen) were used.
3D clusters were generated, embedded and stained as previously described (34, 35). In brief, clusters were generated by plating 1,000 cells per well into 96-well Nunclon Sphera low adhesion plates (Thermo Scientific, cat #174925) and incubated overnight at 37° C. The following day, 6 clusters were embedded into an ECM containing 2,000 NK cells were plated into one well of a Nunc Lab-Tek II 8-well chamber slide (ThermoScientific, cat #154534PK). To ensure equal distribution of NK cells in Matrigel, the NK cells were first suspended in the Matrigel stock, which was then aliquoted for individual cluster embedding. The ECM mixture consisted of 20% growth factor reduced Matrigel (Corning, 10-12 mg/ml stock concentration, #354230) and 80% rat tail collagen type I at 3 mg/mL (Gibco, A1048301). […]

T2 sequence (P27487 whole entry): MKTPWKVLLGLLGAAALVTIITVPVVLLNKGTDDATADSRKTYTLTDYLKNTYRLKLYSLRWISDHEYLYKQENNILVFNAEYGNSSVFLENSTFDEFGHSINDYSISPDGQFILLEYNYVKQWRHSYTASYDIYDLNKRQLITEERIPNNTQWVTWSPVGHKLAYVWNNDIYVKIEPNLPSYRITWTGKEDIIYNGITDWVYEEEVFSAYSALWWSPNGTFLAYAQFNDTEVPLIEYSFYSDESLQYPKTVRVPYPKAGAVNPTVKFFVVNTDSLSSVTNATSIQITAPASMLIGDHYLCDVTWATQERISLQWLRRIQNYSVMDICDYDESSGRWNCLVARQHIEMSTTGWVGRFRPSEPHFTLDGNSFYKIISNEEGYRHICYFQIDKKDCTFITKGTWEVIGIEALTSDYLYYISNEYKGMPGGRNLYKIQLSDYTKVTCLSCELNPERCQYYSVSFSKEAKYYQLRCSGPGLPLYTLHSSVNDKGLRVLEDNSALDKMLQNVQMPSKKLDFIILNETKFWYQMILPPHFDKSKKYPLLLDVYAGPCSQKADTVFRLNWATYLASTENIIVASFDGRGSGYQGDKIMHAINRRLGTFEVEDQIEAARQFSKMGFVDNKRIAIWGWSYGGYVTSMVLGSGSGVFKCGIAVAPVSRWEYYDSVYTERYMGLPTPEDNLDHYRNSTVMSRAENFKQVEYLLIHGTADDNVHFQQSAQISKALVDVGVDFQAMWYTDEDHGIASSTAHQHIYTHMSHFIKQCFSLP
T1 sequence (Q12884 whole entry): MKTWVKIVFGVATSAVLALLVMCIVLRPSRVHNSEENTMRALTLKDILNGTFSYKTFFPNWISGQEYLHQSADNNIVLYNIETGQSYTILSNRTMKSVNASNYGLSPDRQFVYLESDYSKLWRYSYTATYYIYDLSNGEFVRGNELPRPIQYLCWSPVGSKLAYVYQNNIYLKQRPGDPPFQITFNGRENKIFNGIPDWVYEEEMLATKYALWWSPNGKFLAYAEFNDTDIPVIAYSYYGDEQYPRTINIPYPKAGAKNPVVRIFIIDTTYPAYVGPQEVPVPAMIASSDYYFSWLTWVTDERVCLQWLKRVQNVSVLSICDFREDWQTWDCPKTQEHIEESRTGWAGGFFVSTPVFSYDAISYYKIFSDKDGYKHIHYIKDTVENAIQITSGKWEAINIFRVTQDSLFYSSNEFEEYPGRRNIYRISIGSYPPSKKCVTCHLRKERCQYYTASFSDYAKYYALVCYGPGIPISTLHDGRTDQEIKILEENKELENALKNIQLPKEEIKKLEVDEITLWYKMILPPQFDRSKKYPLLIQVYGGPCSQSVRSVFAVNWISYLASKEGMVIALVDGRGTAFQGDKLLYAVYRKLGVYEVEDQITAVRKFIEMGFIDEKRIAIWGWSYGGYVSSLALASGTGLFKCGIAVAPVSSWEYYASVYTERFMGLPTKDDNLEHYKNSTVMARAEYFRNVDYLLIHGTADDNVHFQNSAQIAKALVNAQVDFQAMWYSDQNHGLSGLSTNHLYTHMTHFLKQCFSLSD

SMILES: N#C[C@@H]1CC(F)(F)CN1C(=O)CNC(=O)c1ccnc2ccccc12 [Cpd60]
- Euclidian distance traveled by NK cells (primary human NK cells): no significant impact
- NK cell velocity (primary human NK cells): significantly reduced
- accumulated distance traveled by NK cells (primary human NK cells): significantly reduced
- inhibition of FAP dipeptidyl peptidase activity (FAP): inhibits FAP
- inhibition of DPPIV dipeptidyl peptidase activity (DPPIV): but not FAP's most closely related protein, DPPIV; also recorded: not DPPIV
- effect on NK cell viability (NK cell line): no effect
- NK92-GFP cell infiltration into PANC-1 clusters embedded in matrix (NK92-GFP cells; 24-hour coculture): significantly reduced
- NK92-GFP cell infiltration into PSC clusters embedded in matrix (NK92-GFP cells; 24-hour coculture): significantly reduced
- cluster size (NK92-GFP cells; 80% collagen/20% Matrigel): no effect
